Biological target: T1, MdpL (Mucin degrading protease from Limosilactobacillus); putative O-sialoglycoprotein endopeptidase (OSGP) (Limosilactobacillus fermentum, UniProt B2GAG0)
T1 construct: gene tsaD; C-terminal Gly-Ser-Gly linker and 6xHis tag kept
T1 sequence (B2GAG0 1-344): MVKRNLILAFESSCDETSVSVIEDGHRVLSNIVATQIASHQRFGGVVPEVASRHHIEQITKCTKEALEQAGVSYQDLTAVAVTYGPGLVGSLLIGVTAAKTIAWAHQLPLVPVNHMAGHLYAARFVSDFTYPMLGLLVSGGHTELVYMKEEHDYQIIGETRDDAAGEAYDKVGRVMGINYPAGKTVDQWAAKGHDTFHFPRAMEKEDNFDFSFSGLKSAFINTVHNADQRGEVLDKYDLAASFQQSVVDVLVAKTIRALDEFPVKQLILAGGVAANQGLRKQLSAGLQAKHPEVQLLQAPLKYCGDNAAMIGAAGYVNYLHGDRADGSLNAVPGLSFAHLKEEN
Assay: Etanercept hydrolysis, SDS-PAGE with densitometry
Type: biochemical
Details: inhibitor concentration per manufacturer, not given

NCCc1ccc(S(=O)(=O)F)cc1 [AEBSF]
inhibition level (%): AEBSF, ALLN, Antipain, Chymostatin, E64, Leupeptin, and Phosphoramidon completely inhibited the MdpL activity

CC(C)C[C@H](NC(=O)[C@@H](O)[C@H](N)Cc1ccccc1)C(=O)O [Bestatin]
inhibition level (%): Bestatin, and PMSF had a moderate inhibitory effect

CC(C)C[C@H](NC(=O)[C@@H]1O[C@H]1C(=O)O)C(=O)NCCCCNC(=N)N [E64]
inhibition level (%): AEBSF, ALLN, Antipain, Chymostatin, E64, Leupeptin, and Phosphoramidon completely inhibited the MdpL activity

CC(C)C[C@H](NP(=O)(O)O[C@@H]1O[C@@H](C)[C@H](O)[C@@H](O)[C@H]1O)C(=O)N[C@@H](Cc1c[nH]c2ccccc12)C(=O)O [Phosphoramidon]
inhibition level (%): AEBSF, ALLN, Antipain, Chymostatin, E64, Leupeptin, and Phosphoramidon completely inhibited the MdpL activity

— paper PMC10011156, “Characterization of a highly conserved MUC5B-degrading protease, MdpL, from Limosilactobacillus fermentum” (Frontiers in Microbiology, 2023)
